{
  "source": "paper PMC3972818",
  "about": "(Nature medicine, 2014)",
  "key": {"[1]": {"tested_on": "COX1 synthesis in mitochondria isolated from HEK293 cells", "assay": "Mitochondrial in organello translation", "type": "biochemical, human", "details": "even up to 1 mM"}, "[2]": {"details": "rat IV; mean (% CV); cited from earlier work"}, "[3]": {"details": "mean (% CV); cited from earlier work"}, "in vitro": {"assay": "in vitro", "type": "in vitro ADME", "details": "rat, microsomes"}},
  "data": [
    {"smiles": "CN[C@@H]1[C@H](O)[C@H](NC)[C@H]2O[C@@]3(O)C(=O)C[C@@H](C)O[C@H]3O[C@@H]2[C@H]1O", "note": "[Spectinomycin, spectinomycin]", "values": [
      {"measurement": "Inhibition of in organello mitochondrial translation", "setting": "[1]", "value": "did not inhibit"},
      {"measurement": "% excreted unchanged in urine", "setting": "[2]", "value": "55.3 (27.0)^2%"},
      {"measurement": "CL", "setting": "[2]", "value": "0.60 (11.5)^2 L/h/kg"},
      {"measurement": "Vd", "setting": "[2]", "value": "0.76 (45.2)^2 L/kg"},
      {"measurement": "t½", "setting": "[2]", "value": "0.75 (49.3)^2 h"},
      {"measurement": "Protein serum binding (Rat) % bound", "setting": "[3]", "value": "12.7 (7.5)^2%"},
      {"measurement": "remaining at 1.5 h", "setting": "in vitro", "value": 80.4, "unit": "%"}
    ]}
  ]
}
